Source: article PMC8279406 (Journal of Medicinal Chemistry, 2021)

Columns and labels:
[1] = test system: recombinant R8102 HSV-1 strain; experiment: Infection neutralization assay, 293T cells, R8102 HSV-1, β-galactosidase readout; assay type: cell-based; conditions: for effect on HSV-1 infection (in words): increasing concentrations, 1 h prior to infection and 90 min during attachment
Text: The binding of HSV-1 gH/gL to either αvβ6 or αvβ8 results in the dissociation of gL from the heterodimer, which, in turn, can favor HSV entry into cells.[27] […] R1.302, a nectin1-neutralizing mAb, was used as a positive control. In the first set of experiments, 293T cells, expressing both the αvβ6 and αvβ8 integrins, were alternatively exposed to increasing concentrations of the integrin-binding peptides and R1.302 before and during the infection by the recombinant R8102 HSV-1 strain. This virion carries, indeed, a lacZ reporter gene under the control of the α27 promoter, whose expression analysis allows for readily quantifying the infectivity.[59] […] Remarkably, these preliminary results were in agreement with the known interchangeable and additive roles played by αvβ6 and αvβ8 integrins upon HSV-1 infection.[26]
Figure 3 Inhibition of HSV-1 infection. 293T cells were exposed to increasing concentrations of the indicated peptides for 1 h prior to infection and during virus attachment for another 90 min. Infection was induced using the recombinant R8102 HSV-1 strain and measured after 8 h as β-galactosidase activity, using o-nitrophenyl-D-galactopyranoside (ONPG) as a substrate. The assays were run in triplicate. Bars show standard deviation (SD).
The experiments were performed using 293T cells in 96-well plates with extracellular virions of R8102 at an input multiplicity of infection of 5 PFU/cell. Cells were exposed to increasing concentrations of the peptides for 1 h at 37 °C, and the viral inoculum was added in the presence of peptides for 90 min at 37 °C. After the removal of the inoculum and rinsing with DMEM containing 1% FBS, the cells were incubated without peptides for 8 h. The same protocol was followed for R1.302 mAb that was used as a positive control. The infection was quantified as β-Gal activity using o-nitrophenyl-D-galactopyranoside (ONPG) as a substrate.[86]

[2] = test system: gHsolST; experiment: gH binding assay, gHsolST binding to transfected J cells; assay type: cell-based, HSV-1; conditions: J cells with nectin1, αvβ6 and αvβ8, 700 μM peptide, 2 μM gHsolST
Experimental: To further verify this hypothesis, the soluble form of gH (gHsolST) was used in a soluble protein in the cell-binding assay on J cells transfected with nectin1 and the αvβ6 and αvβ8 integrins, treated or untreated with each peptide.
Figure 6 gH binding assay. J cells were transfected with a low amount (75 ng of DNA/24 well) of nectin1 plus αvβ6 integrin (300 ng of DNA/24 well) and αvβ8 integrin (300 ng of DNA/24 well). Then, 48 h after transfection, the cells were exposed to 700 μM peptides for 1 h at 37 °C. Cells derived from samples treated or not treated with peptides were incubated for 1 h at 4 °C with gHsolST or gBsolST. Samples were washed and subsequently incubated for 1 h at 4 °C with phycoerythrin (PE)-conjugated mAb to the One-STrEP tag (Strep-Tactin). gHsolST and gBsolST binding to the cell surface were quantified as the flow cytometry expression of the PE mean fluorescence intensity (MFI) of gated cells. Histograms represent the average of triplicates ± SD.
The remaining half of the samples were used for the gH binding assay. […] Control cells were incubated with 2 μM gBsolST in 100 μL of the same buffer used for gHsolST and the binding of soluble protein was detected as described for the gH binding assay. Cells were analyzed by cytofluorimetric analyses using an AccuriC6 flow cytometer (Becton Dickinson). […]

[3] = test system: T1, integrin β8; experiment: Integrin internalization assay, surface integrin β8 by flow cytometry; assay type: cell-based, human; conditions: J cells with nectin1, αvβ6 and αvβ8, 700 μM, 1 h at 37 °C
T1 construct: expressed in transfected cells; host or cells: J cells (derivatives of BHK-TK2 hamster cells)
Text: Therefore, another mechanism might be responsible for the activity of 6 on J cells expressing αvβ8 integrin alone as well as the higher activity of 6 than that of 1 in cells that express both αvβ6 and αvβ8.[38] Thus, we hypothesized that 6 can prevent HSV-1 entry into J cells expressing nectin1 and the αvβ8 integrin alone by inducing internalization of the integrin itself. To validate our hypothesis, J cells were transfected with nectin1 and the two integrins αvβ6 and αvβ8 in the above-described manner. Then, 48 h after transfection, the cells were incubated for 60 min at 37 °C with 1 or 6. The surface expression of integrin β6 and β8, in the presence or the absence of peptides, was then evaluated by flow cytometry using FAB4155A (mAbβ6) and FAB4775A (mAbβ8) monoclonal antibodies that recognize other integrin regions than the RGD-binding domain.
Figure 5 Integrin internalization assay. J cells were transfected with a low amount (75 ng of DNA/24 well) of nectin1 plus αvβ6 integrin (300 ng of DNA/24 well) and αvβ8 integrin (300 ng of DNA/24 well). Then, 48 h after transfection, the cells were exposed to 700 μM peptides for 1 h at 37 °C. […] Integrin and nectin1 surface expression levels were quantified as flow cytometry expression of the APC mean fluorescence intensity (MFI) of gated cells. […]

| Compound | inhibition of HSV infection ([1]; 700 μM) [%] | maximum inhibition of HSV-1 infection ([1]; at 1000 μM) [%] | effect on HSV-1 infection (in words) [1] | binding of gHsolST to cells (in words) [2] | integrin β8 surface level (in words) [3] |
| --- | --- | --- | --- | --- | --- |
| N=C(N)NCCC[C@@H]1NC(=O)CC[C@@H](C(N)=O)NC(=O)[C@H](C2CCCCC2)NC(=O)[C@H](CC(=O)O)NC(=O)CNC1=O [compound 1, [Arg-Gly-Asp-Chg-Glu]-CONH2] | 40 | 50 | able to inhibit HSV-1 infection in a dose-dependent manner | only partially reduced | – |
| CN1C(=O)[C@H](C2CCCCC2)NC(=O)[C@H](CC(=O)O)NC(=O)CNC(=O)[C@H](CCCNC(=N)N)NC(=O)CC[C@H]1C(N)=O [compound 6, [Arg-Gly-Asp-Chg-(NMe)Glu]-CONH2] | – | – | able to inhibit HSV-1 infection in a dose-dependent manner | strongly reduced | reduced |
